Counter-ions that a name gives are not always drawn. Peptide text beside a SMILES is read from it. * marks the point of attachment. pNA = O=[N+]([O-])c1ccc(N*)cc1
system: activated LAL (Limulus Amebocyte Lysate); assay: Single-stage chromogenic LAL-test (hydrolysis of the chromogenic substrate by endotoxin-activated LAL, pNA read at 405 nm); type: biochemical, Limulus Potyphemus; settings: substrate concentration 2.2 mM in the reaction solution; endotoxin 0.1-1.2 EU/ml; Tris buffer pH 7.9; 37° C., 15 min; absorbance 405 nm
Procedure: A series of endotoxin containing solutions, making up a standard curve in the range 0.1-1.2 EU/ml, were assayed as described below using the different chromogenic substrates. The slopes of the resulting standard curves were compared and the slope for the substrate S-2423 was considered to be 100%.
A reagent (100 μl) consisting of a mixture of LAL (50% of the clotting concentration) and the chromogenic substrate (4.4 mM) in a Tris buffer of pH 7.9 is added to an equal volume of the sample. The resulting reaction (activation of the LAL and the subsequent hydrolyses of the chromogenic substrate)is carried out at 37° C. After 15 min. the reaction is terminated by the addition of 400 μl of acetic acid and the absorbance is read at 405 nm.
Substrate S-2423 (Ac-Ile-Glu-Gly-Arg-pNA.HCl) is taken as standard.

SMILES	Relative activity (slope of endotoxin standard curve, S-2423 = 100%)
CC[C@H](C)[C@H](NC(C)=O)C(=O)N[C@@H](CCC(=O)O)C(=O)NCC(=O)N[C@@H](CCCCN)C(=O)Nc1ccc([N+](=O)[O-])cc1 [Substrate S-2834, Ac--Ile--Glu--Gly--Lys--pNA.HCl] (Ac-IEGK-pNA)	126%
CC[C@H](C)[C@H](NC(C)=O)C(=O)N[C@@H](CCC(=O)O)C(=O)NCC(=O)N[C@@H](CCCNC(=N)N)C(=O)Nc1ccc([N+](=O)[O-])cc1 [Substrate S-2423, Ac--Ile--Glu--Gly--Arg--pNA.HCl, reference compound] (Ac-IEGR-pNA)	100%
CC[C@H](C)[C@H](NC(C)=O)C(=O)N[C@@H](CCC(=O)O)C(=O)OCC(=O)N[C@@H](CCCNC(=N)N)C(=O)Nc1ccc([N+](=O)[O-])cc1 [Substrate S-2860, Ac--Ile--Glu-Glycolyl-Arg--pNA.HCl]	142%
CC[C@H](C)[C@H](NC(C)=O)C(=O)N[C@@H](CO)C(=O)NCC(=O)N[C@@H](CCCCN)C(=O)Nc1ccc([N+](=O)[O-])cc1 [Substrate S-2854, Ac--Ile--Ser--Gly--Lys--pNA.HCl] (Ac-ISGK-pNA)	131%

Source: patent US5334703A, “Chromogenic substrate” (Chromonogenix AB, priority 1989, dated 1994)
